In one experiment the test system is L6 myotubes. Briefly: 2-deoxyglucose uptake. Type of experiment: cell-based, rat. The following applies: overnight treatment with 20 μM 7a or 1 mM metformin. As for the experimental part:
To measure 2-deoxyglucose (2-DG) uptake, L6 myotubes were treated with compound or DMSO control overnight in the absence of serum in α-MEM. Following treatment, cells were washed twice with KRH buffer (50 mM HEPES pH 7.4, 137 mM NaCl, 4.7 mM KCl, 1.85 mM CaCl2, 1.3 mM MgSO4) containing 0.1% BSA. Residual wash buffer was removed by aspiration. Cells were then incubated for 10 min at 37° C. in a KRH buffer containing 0.1% BSA, 5 mM unlabeled 2-DG and 2 μCi/ml [1,2-^3H(N)]-2-deoxy-D-glucose (PerkinElmer). The uptake was terminated by washing four times with ice-cold KRH buffer containing 0.1% BSA. Nonspecific 2-DG uptake into cells was determined in the presence of 10 μM cytochalasin B, which inhibits glucose transporters, and subtracted. The cells were lysed with 0.05 M NaOH for 2 hrs at 37° C. 10 μl cell lysate was used to quantify protein concentration by BCA assay. The remaining sample was transferred to a scintillation vial containing 3 ml Opti-Fluor liquid scintillation cocktail (PerkinElmer), and radioactivity was determined using a Beckman Coulter LS 6500 scintillation system and normalized against protein concentration.

The next experiment concerns myotubes. Briefly: Glucose consumption and lactate production in myotube culture media. Type of experiment: cell-based. As for the experimental part: To measure glucose consumption and lactate production, a total of 1×10^5 cells were seeded into each well of a 12-well plate and cultured in the presence of compound for 48 hrs. The culture media were collected and deproteinized by centrifugation using an Amicon Ultra centrifugal filter (3 kDa cut-off), while cells were lysed and used for protein concentration determination by BCA assay. The media were assayed immediately for glucose and lactate levels using colorimetric assay kits from BioVision following the manufacturer's protocols. The values were normalized against protein concentration. All measurements were made in triplicate.

The target of a further experiment is T1, PI5P4Kβ (Homo sapiens, UniProt P78356).
T1 sequence (P78356 1-416): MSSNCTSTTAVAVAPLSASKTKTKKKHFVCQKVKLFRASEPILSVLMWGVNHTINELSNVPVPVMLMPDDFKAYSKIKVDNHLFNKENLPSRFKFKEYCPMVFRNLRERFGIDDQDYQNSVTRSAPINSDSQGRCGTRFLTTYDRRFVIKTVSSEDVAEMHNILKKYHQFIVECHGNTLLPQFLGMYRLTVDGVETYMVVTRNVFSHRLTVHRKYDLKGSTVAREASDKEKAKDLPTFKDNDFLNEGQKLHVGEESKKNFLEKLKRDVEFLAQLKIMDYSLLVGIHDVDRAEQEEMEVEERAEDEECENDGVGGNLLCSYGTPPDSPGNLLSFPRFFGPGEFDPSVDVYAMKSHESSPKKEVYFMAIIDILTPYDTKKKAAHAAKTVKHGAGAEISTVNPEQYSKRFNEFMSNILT
Briefly: PI5P4Kβ kinase assay, 32P-labelled PI(4,5)P2 product resolved by TLC.

Experiment [1] deals with T2, PI5P4Kα (Homo sapiens, UniProt P48426).
T2 sequence (P48426 1-406): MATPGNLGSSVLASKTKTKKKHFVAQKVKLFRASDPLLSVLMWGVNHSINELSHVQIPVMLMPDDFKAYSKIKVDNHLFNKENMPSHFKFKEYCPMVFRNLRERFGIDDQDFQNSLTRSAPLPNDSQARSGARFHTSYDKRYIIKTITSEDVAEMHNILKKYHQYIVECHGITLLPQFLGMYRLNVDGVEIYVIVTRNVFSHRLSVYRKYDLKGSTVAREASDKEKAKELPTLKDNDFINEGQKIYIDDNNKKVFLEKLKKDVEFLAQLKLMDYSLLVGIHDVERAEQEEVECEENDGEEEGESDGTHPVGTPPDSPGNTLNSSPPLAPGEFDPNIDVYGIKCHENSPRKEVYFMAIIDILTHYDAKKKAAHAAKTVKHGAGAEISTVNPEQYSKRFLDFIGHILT
Briefly: PI5P4Kα kinase assay, 32P-labelled PI(4,5)P2 product resolved by TLC.
Procedure: (§2) Within each well, 10 μl final reaction mixture contains 100 μM PI(5)P, 2 μg/ml PI5P4Kα, 10 μM ATP (in FIG. 1B, ATP concentration varied from 10 μM to 100 μM), 10 mM MgCl2, 0.1% CHAPS and 20 mM HEPES pH 7.3. […] Kinase assay based on PI(4,5)P2 (product) detection was carried out in a 50 μl assay mixture containing 40 μM PI(5)P, 0.4 μg/ml PI5P4Kα, 20 μM ATP (unless otherwise stated), 10 mM MgCl2, 20 mM HEPES pH 7.3, and 10 mCi [γ-^32P]-ATP for 1 h at RT. […] The reaction was terminated by 5 μl 12N HCl. After termination, 175 μl PBS buffer and 380 μl methanol/chloroform mix (1:1, v/v) containing 10 μg/ml bovine brain extract (type I; Folch Fraction I; Sigma Aldrich) were added. The lower organic phase, containing the extracted lipids, was collected and dried under vacuum. The dried lipids were re-suspended in 25 μl methanol/chloroform mix (2:1, v/v), and separated by thin-layer chromatography (TLC). For TLC, heat activated 1% potassium oxalate-coated silica gel 60 plates were used (20 cm×20 cm, Merck), and the running solvent contained water, acetic acid, methanol, acetone, and chloroform (3:32:24:30:64 mix by volume). Radiolabeled lipid product was quantified with a phosphor imager (Bio-Rad Molecular Imager FX). […] The inhibitor was usually incubated with the enzyme at RT for 20 min before the reaction was initiated.

The next experiment deals with C2Cl2 myotubes. Briefly: Immunoblot analysis of signaling in C2Cl2 myotubes. Type of experiment: cell-based, mouse. The following applies: FIG. 3E. As to the method:
BT-474 and MCF7 breast cancer cells, C2Cl2 mouse myoblast cells, and HEK 293T cells were maintained in high-glucose DMEM medium containing 10% FBS. L6 rat myoblast cells were maintained in α-MEM medium containing 10% FBS. For differentiation into myotubes, C2Cl2 cells were kept in DMEM medium containing 2% horse serum for 5 days, and L6 cells were kept in α-MEM medium containing 2% FBS for 7 days. Amino-acid-free DMEM medium was prepared using powder from USBio, and MEM amino acids solution was from Gibco. Media were all supplemented with 100 U/ml penicillin/streptomycin. Cell lines were purchased from ATCC.
(§1) After wash with cold DPBS buffer, cells were lysed in RIPA buffer that contained 50 mM Tris-HCl pH 8.0, 150 mM NaCl, 1 mM EDTA, 1 mM EGTA, 1% NP-40, 0.5% sodium deoxycholate, 0.1% SDS, and protease and phosphatase inhibitor cocktails (Roche). Total protein concentrations were measured using a BCA assay (Thermo scientific). Cell lysate (about 80 μg protein) was resolved by SDS-PAGE and blotted onto PVDF membranes. The membranes were probed overnight at 4° C. with appropriate primary antibodies (Cell Signaling Technology) and incubated with secondary fluorescent antibodies (LI-COR Biosciences) for 1 hr at room temperature before imaging by an Odyssey CLx system.
(In general: Immunoblotting shows a protein as a band on a membrane.)

Experiment [2] deals with T2, PI5P4Kα. Briefly: PI5P4Kα in vitro kinase assay based on ADP detection (ADP-Glo), kinetic studies. Type of experiment: biochemical. Set-up: made in house.
Procedure: Lipid vesicles [2:1 mixture of DPPS and PI(5)P] were prepared by sonication and extrusion in a buffer containing 0.1% CHAPS, 20 mM HEPES pH 7.3, 200 mM NaCl, 20 mM MgCl2, aliquoted, and stored at −80° C. Immediately before assay, thawed lipid suspension was sonicated and extruded again, and mixed with PI5P4Kα freshly purified in the same buffer. […] 20 nl of library compound (10 mM DMSO solution) was transferred to the well by an Aquarius system (Tecan). The plates were shaken for 30 s. 1 μl ATP solution was then added to initiate the reaction (final concentrations: PI(5)P 100 μM; lipid kinase 2 μg/ml; ATP 40 μM; library compound 20 μM). After incubating at RT in the dark for 1 h, 5 μl ADP-Glom reagent (Promega) was added to stop the reaction. After 40 min further incubation, 10 μl Kinase Detection reagent (Promega) was added. After 30 min, the luminescence was measured with an EnVision Multimode Plate Reader.
In vitro kinase assay based on ADP (product) detection was performed similarly in a white solid-bottom 96-well plate (Corning 3600). Within each well, 10 μl final reaction mixture contains 100 μM PI(5)P, 2 μg/ml PI5P4Kα, 10 μM ATP (in FIG. 1B, ATP concentration varied from 10 μM to 100 μM), 10 mM MgCl2, 0.1% CHAPS and 20 mM HEPES pH 7.3. After reaction, 10 μl ADP-Glo™ reagent and 20 μl Kinase Detection reagent were used for luminescence reading. […]
The target in experiment [3] is T2, PI5P4Kα. Briefly: Competitive fluorescent binding assay with TNP-ATP. Set-up: made in house. The following applies: displacement of 10 μM TNP-ATP from 6.8 μM PI5P4Kα.
For a further experiment, the system named is AMPK. Briefly: Western blot of ACC phosphorylation by AMPK in myotubes (FIG. 3F). Type of experiment: cell-based. As to the method:
as §1

Entries after “also recorded” stand apart in the source; their conditions may differ.

Procedure for PI5P4Kβ: as §2

As for `CN(C)C(=N)N=C(N)N` [metformin, reference compound], the “rate of glucose uptake (labeled 2-deoxyglucose)” value with L6 myotubes is recorded as “doubled”. In the experiment with myotubes (48 hours), the “molar fraction of consumed glucose used for lactate fermentation” value is listed as 41%. Further, in the experiment with myotubes (48 hours after treatment), the “lactate accumulated in the media” value was found to be 8.6 mM and the “reduction of glucose concentration in the media” value is listed as 10.6 mM.

Usually Ki stands for a measure of affinity in units of concentration, obtained from inhibition or displacement. The low end stands for higher affinity, the high end for lower affinity. In the case of `CN1C(=O)[C@@H](Cc2ccccn2)N(C2CCCC2)c2nc(Nc3cc(Cl)c(O)c(Cl)c3)ncc21` [7e, (R)-8-cyclopentyl-2-((3,5-dichloro-4-hydroxyphenyl)amino)-7-(pyridine-2-ylmethyl)-5-methyl-7,8-dihydropteridin-6(5H)-one], the Ki at PI5P4Kβ and on PI5P4Kα [1] was 20 to 60 nM in each case.

With `C[C@@H]1COCCN1c1cc(=O)n2c(n1)N(Cc1cncc(Cl)c1)[C@H](C(F)(F)F)CC2` [SAR405, reference compound], the “mTORC1 activation by amino acids” value in the experiment with C2Cl2 myotubes is “prevented”.

As for `CN1C(=O)[C@@H](Cc2ccccn2)N(C2CCCC2)c2nc(Nc3ccc4[nH]nnc4c3)ncc21` [7k, (R)-2-((1H-benzo[d][1,2,3]triazol-5-yl)amino)-8-cyclopentyl-5-methyl-7-(pyridin-2-ylmethyl)-7,8-dihydropteridin-6(5H)-one], the Ki on PI5P4Kβ fell in the range of 100 to 200 nM.

Consider `CC[C@@H]1C(=O)N(C)c2cnc(Nc3ccc(C(=O)N[C@H]4CC[C@H](N5CCN(CC6CC6)CC5)CC4)cc3OC)nc2N1C(C)C` [volasertib], for which, on PI5P4Kα [2] (ATP 10 μM), the “Kis for PI5P4Kα compared with BI-D1870” value was “slightly higher”.

Turning to `CN1C(=O)[C@@H](Cc2ccccn2)N(C2CCCC2)c2nc(Nc3ncc(C(=O)O)s3)ncc21` [7j, (R)-2-((8-cyclopentyl-5-methyl-6-oxo-7-(pyridin-2-ylmethyl)-5,6,7,8-tetrahydropteridin-2-yl)amino)thiazole-5-carboxylic acid], the Ki at PI5P4Kβ was 400 to 800 nM; on PI5P4Kα [1] it was 50 to 100 nM.

Take `CN1C(=O)[C@@H](CC2CCCC2)N(C2CCCC2)c2nc(Nc3cc(F)c(C(=O)O)c(F)c3)ncc21` [7i, (R)-4-((8-cyclopentyl-7-(cyclopentylmethyl)-5-methyl-6-oxo-5,6,7,8-tetrahydropteridin-2-yl)amino)-2,6-difluorobenzoic acid]: the inhibition constant (Ki) at PI5P4Kβ is 75 to 150 nM; on PI5P4Kα [1] it was 55 to 110 nM.

What is called Kd is the free concentration of one partner at which half of the binding sites on the other are occupied at equilibrium, for simple one-to-one binding. For `CC(C)CCN1c2nc(Nc3cc(F)c(O)c(F)c3)ncc2N(C)C(=O)C1C` (stereo not shown) [BI-D1870], the dissociation constant (Kd) at PI5P4Kα [3] was roughly 1300 nM. Besides, in the experiment on AMPK, the “ACC phosphorylation / AMPK activation” value was “did not increase; also recorded: did not induce”. On PI5P4Kα [2] (competitive with ATP), this molecule displayed a Ki of roughly 1000 nM.

Turning to `CN1C(=O)[C@@H](CC2CCCC2)N(C2CCCC2)c2nc(Nc3ccc4[nH]nnc4c3)ncc21` [7f, (R)-2-((1H-benzo[d][1,2,3]triazol-5-yl)amino)-8-cyclopentyl-7-(cyclopentylmethyl)-5-methyl-7,8-dihydropteridin-6(5H)-one], the Ki is 80 to 230 nM at PI5P4Kβ and 200 to 700 nM at PI5P4Kα [1].

Take `CN1C(=O)[C@@H](CC2CCCC2)N(C2CCCC2)c2nc(Nc3ncc(C(=O)O)s3)ncc21` [7g, (R)-2-((8-cyclopentyl-7-(cyclopentylmethyl)-5-methyl-6-oxo-5,6,7,8-tetrahydropteridin-2-yl)amino)thiazole-5-carboxylic acid]: the Ki on PI5P4Kβ was 100 to 280 nM; on PI5P4Kα [1] it was 30 to 90 nM.

Turning to `CS(=O)(=O)N1CCN(Cc2cc3nc(-c4cccc5[nH]ncc45)nc(N4CCOCC4)c3s2)CC1` [GDC-0941, reference compound], the “insulin-induced Akt phosphorylation at Ser-473” value with C2Cl2 myotubes is on record as “eliminated”.

In the case of `CN1C(=O)[C@@H](CC2CCCCC2)N(C2CCCC2)c2nc(Nc3cc(Cl)c(O)c(Cl)c3)ncc21` [7b, (R)-7-(cyclohexylmethyl)-8-cyclopentyl-2-((3,5-dichloro-4-hydroxyphenyl)amino)-5-methyl-7,8-dihydropteridin-6(5H)-one], in the experiment on AMPK, the “ACC phosphorylation / AMPK activation” value was “activated; also recorded: enhanced”. Moreover, on PI5P4Kβ, the “potency/affinity for PI5P4Kβ in vitro” value is given as “no effect”; the “selectivity between PI5P4Kα and PI5P4Kβ” value is recorded as “more specific for PI5P4Kβ; also recorded: more potent against PI5P4Kβ than PI5P4Kα”. Also, the “potency/affinity for PI5P4Kα in vitro” value at PI5P4Kα [1] is recorded as “weaken the affinity”.

For `CC[C@@H]1C(=O)N(C)c2cnc(Nc3ccc(C(=O)NC4CCN(C)CC4)cc3OC)nc2N1C1CCCC1` [BI-2536], the “ACC phosphorylation / AMPK activation” value with AMPK is on record as “did not increase; also recorded: did not induce”.

Turning to `CN1C(=O)[C@@H](CC2CCCC2)N(C2CCCC2)c2nc(Nc3csc(C(=O)O)c3)ncc21` [7h, (R)-4-((8-cyclopentyl-7-(cyclopentylmethyl)-5-methyl-6-oxo-5,6,7,8-tetrahydropteridin-2-yl)amino)thiophene-2-carboxylic acid], the Ki on PI5P4Kβ is 80 to 160 nM; at PI5P4Kα [1], 110 to 220 nM.
